Reference: patent US9931335B2, “Desethylhydroxychloroquine for the treatment of diseases associated with inflammation” (The Board of Trustees of the Leland Stanford Junior …, priority 2013, dated 2018)
Like-named read-outs stand apart in the source and are kept apart here.

What was measured:
[1] = test system: experimental autoimmune encephalomyelitis (EAE) in SJL mice; experiment: EAE mouse model for MS, prevention (treatment from immunization); type: in vivo; settings: for EAE clinical score (development and severity): 100 mg/kg/day oral gavage from immunization, 50 mg/kg/day from day 8, vs vehicle or BDCQ, P<0.05
Excerpt: Experimental autoimmune encephalomyelitis (EAE), a mouse model for MS, was induced in SJL mice (n=10 per group) by immunization with proteolipid protein peptide 139-151 (PLP 139-151) in CFA. […] Starting on day 8, mice were scored daily for the severity of EAE.

[2] = test system: high-fat diet-induced NASH in C57BL/6 mice; experiment: High fat diet-induced NAFLD/NASH in mice, prevention; type: in vivo, mouse; settings: for liver score (NASH histology): 100 mg/kg/day from start of high-fat diet, vs vehicle (DHCQ P<0.001, HCQ P<0.05)
Experimental: To evaluate the effect of DHCQ and HCQ on an animal model of non-alcoholic fatty liver disease (NAFLD) which can lead to the development of NASH, C57BL/6 mice (8 per group) were fed a high-fat “western-style” diet (60% caloric content from fat; Taconic) for 6 weeks. The mice were asymptomatic throughout this time, but were developing a pre- or early-disease state. The mice were treated, starting at the time of initiation of the high-fat diet, with HCQ (100 mg/kg/day), DHCQ (100 mg/kg/day), or vehicle control, to prevent the development of NAFLD and NASH. After 6 weeks of treatment with DHCQ, HCQ and vehicle (control) while on a high-fat diet, blood was collected and mice sacrificed for histological analysis of liver pathology. Livers from the mice in each treatment group were fixed, embedded, sectioned, stained with H&E, representative micrographs are presented in FIG. 7A (both 10× and 20× magnification), “liver scores” determined using an established scoring system for NASH (Brunt et al, Nonalcoholic steatohepatitis: a proposal for grading and staging the histological lesions, American J. Gastroenterology, 1999, 94(9):2467-74).

[3] = test system: established high-fat diet-induced NASH in C57BL/6 mice; experiment: High fat diet-induced NASH in mice, treatment of established disease; type: in vivo, mouse; settings: 6 weeks; for steatosis percentage of whole area (liver histology): 10 mg/kg/day started after 2 weeks of high-fat diet; for steatosis percentage of whole area (liver histology) / serum ALT / serum AST: vs vehicle
Experimental: To evaluate the effect of DHCQ and HCQ on established NASH, C57BL/6 mice (8 per group) were fed a high-fat “western-style” diet (60% caloric content from fat; Taconic). Following initiation of the high-fat diet, after 2 weeks blood was drawn and analyzed for abnormal elevations in serum markers for NASH including AST and ALT. The AST and ALT became abnormally elevated following the initial 2 weeks of high-fat diet, and at that time treatment was initiated with HCQ (10 mg/kg/day), DHCQ (10 mg/kg/day), or vehicle control. After 6 weeks of treatment, mice were fasted and blood was collected for serum analysis and mice sacrificed for histologic analysis of liver pathology. FIG. 8A presents micrographs of representative liver tissue sections at both 10× and 20× magnification. […] AST and ALT levels in the collected serum were measured and 2-tailed T Tests used to compare levels between groups.

ARPE-19 cells = test system: ARPE-19 cells
Experimental: The major serious risk to long term administration of hydroxychloroquine is retinal accumulation and subsequent ocular toxicity (Terahi et al, 2008. Semin Opthal. (3):201-208. PMID). The ocular deposition of HCQ, DHCQ, and BDCQ was evaluated by direct retinal cellular toxicity by incubating equivalent concentrations of these molecules with the retinal pigmented epithelial cell line ARPE-19. ARPE-19 is a human retinal pigment epithelial cell line with differentiated properties (Dunn et al., Exp Eye Res. 1996 62(2):155-69). ARPE-19 cells were grown to 90% confluence, and then exposed to 10 µg/ml of HCQ, DHCQ, BDCQ, or vehicle control for 24 hours, following which microscopic analysis and photomicroscopy was performed at 40× power.
As described above, ARPE-19 cells were grown to 90% confluence then exposed to 10 μg/ml HCQ, DHCQ, BDCQ, or vehicle control for 24 hours followed by quantitation of cell death by lactate dehydrogenase (LDH) release assay (Abcam).

[4] = test system: ganglion cell layer (GCL) of the retina; experiment: Retinal histology of mice dosed for 3 months; type: in vivo, mouse; settings: for number of cells (nuclei) in the GCL vs vehicle / nuclear shrinkage in the ganglion cell layer (GCL): 100 mg/kg/day, 3 months; for nuclear shrinkage in the ganglion cell layer (GCL): H&E
Excerpt: At the time of termination, the eyes from each treatment group were carefully microdissected to ensure the retina remained intact, the eye was fixed in formalin, and the fixed eye sectioned to visualize the retina. […] Representative images of H&E stained retinal sections are presented from each treatment group in FIG. 17.
Using the histologic and quantitative pathology methodology adapted from Shichiri, et al (Shichiri, et al, JBC. 2012, 287(4):2926-34. PMID 22147702), the H&E stained retinal sections were evaluated for number of nuclei in the ganglion cell layer (GCL) (FIG. 18). The graph presents quantitation of the number of nuclei in the GCL of the retina from the indicated treatment groups. The number of cells in the GCL of the retina for each treatment group was compared with the number of cells in vehicle-treated control by two-tailed T test.

[5] = 100 mg/kg/day, 6 weeks, vs vehicle

| Structure (SMILES) | EAE clinical score (development and severity) [1] | liver score (NASH histology) ([2]; 6 weeks) | steatosis percentage of whole area (liver histology) [3] | serum ALT ([3]; 10 mg/kg/day) | serum AST ([3]; 10 mg/kg/day) | ARPE-19 cellular toxicity by microscopy (ARPE-19 cells) | number of cells (nuclei) in the GCL vs vehicle [4] | nuclear shrinkage in the ganglion cell layer (GCL) [4] | retinal cell loss in GCL, HCQ compared to DHCQ ([4]; P<0.05) | EAE disease activity compared to HCQ treatment ([1]; at several timepoints, P<0.05 Mann Whitney U test) | serum ALT [2, 5] | serum AST [2, 5] | liver score, AST and ALT compared to HCQ ([2]; P<0.05 two-tailed T test) | AST and ALT compared to treatment with HCQ ([3]; 10 mg/kg/day) | ARPE-19 cellular toxicity by microscopy (ARPE-19 cells; human, 24 h, 10 µg/ml) |
| --- | --- | --- | --- | --- | --- | --- | --- | --- | --- | --- | --- | --- | --- | --- | --- |
| CCN(CCO)CCCC(C)Nc1ccnc2cc(Cl)ccc12 (stereo not shown) [HCQ, hydroxychloroquine] | prevented development of and reduced the severity of EAE | statistically reduced | statistically reduced the steatosis percentage | only exhibited a trend towards reduction | only exhibited a trend towards reduction | increased cytotoxicity and death | significantly lower | increased nuclear shrinkage in the GCL | statistically increased retinal cell loss |  |  |  |  |  |  |
| CC(CCCNCCO)Nc1ccnc2cc(Cl)ccc12 (stereo not shown) [DHCQ, desethylhydroxychloroquine] | prevented development of and reduced the severity of EAE | statistically reduced | statistically reduced the steatosis percentage | statistically reduced abnormal elevations | statistically reduced abnormal elevations |  | no reduction in the number of cells in the GCL | No increase in nuclear shrinkage in the GCL |  | statistically superior activity | prevents and reduces abnormal elevations | prevents and reduces abnormal elevations | statistically superior activity to HCQ | statistical reductions in the AST and ALT as compared to treatment with HCQ | less ARPE-19 cellular toxicity |
